Biological target: T1, chimeric human H3 receptor (Homo sapiens, UniProt Q9Y5N1, E19D)
T1 construct: made in house; host or cells: Sf9 insect cells (baculovirus infection); P2 membrane preparation
Assay: Chimeric human H3 receptor GTP binding assay (agonist-stimulated GTP-gamma35S binding, Example 7)
Format: biochemical
Conditions: Table II "Ki", symbol "*": Ki in the assay of Example 7; read-out: Ki
Outline: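 Sf9 membranes co-expressing the chimeric receptor and heterotrimeric G-protein subunits, 35 μg protein per tube, in pH 7.4 Tris buffer with 10 μM GDP. Test compounds at 10^−10 to 10^−6 M with 1 μM histamine, 60 min at room temperature. Filter-bound GTP-gamma^35S read by scintillation; IC50 from non-linear regression of dose-response curves.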

T1 sequence (Q9Y5N1 with tags, fused parts or gaps E19D): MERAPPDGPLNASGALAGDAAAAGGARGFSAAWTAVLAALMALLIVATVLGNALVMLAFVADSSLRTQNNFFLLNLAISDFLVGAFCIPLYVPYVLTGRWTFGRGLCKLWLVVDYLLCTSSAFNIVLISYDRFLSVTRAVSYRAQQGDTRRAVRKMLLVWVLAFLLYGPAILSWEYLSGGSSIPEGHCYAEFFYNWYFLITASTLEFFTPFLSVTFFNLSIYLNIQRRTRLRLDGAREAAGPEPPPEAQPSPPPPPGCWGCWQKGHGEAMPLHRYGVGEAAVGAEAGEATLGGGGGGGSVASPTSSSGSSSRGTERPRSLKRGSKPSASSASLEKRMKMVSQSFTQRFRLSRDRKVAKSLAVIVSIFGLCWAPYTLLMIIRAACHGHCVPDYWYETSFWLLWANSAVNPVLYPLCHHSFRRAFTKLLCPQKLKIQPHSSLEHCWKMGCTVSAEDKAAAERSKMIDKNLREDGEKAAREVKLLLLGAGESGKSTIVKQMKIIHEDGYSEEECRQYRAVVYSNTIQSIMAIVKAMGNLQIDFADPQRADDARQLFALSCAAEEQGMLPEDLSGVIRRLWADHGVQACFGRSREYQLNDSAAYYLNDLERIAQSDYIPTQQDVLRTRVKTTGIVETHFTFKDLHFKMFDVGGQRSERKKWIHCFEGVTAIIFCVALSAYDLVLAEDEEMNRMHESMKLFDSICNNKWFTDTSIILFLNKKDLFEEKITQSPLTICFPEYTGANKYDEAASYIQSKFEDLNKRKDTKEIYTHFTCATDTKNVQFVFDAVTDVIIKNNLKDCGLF

Ki	SMILES
< 1000 nM	COc1ccc(F)cc1-c1ccc(N2CCN(CC(=O)N3CCN(C4CCC4)CC3)CC2)cc1 [Compound 792, 1-cyclobutyl-4-{[4-(5′-fluoro-2′-methoxybiphenyl-4-yl)piperazin-1-yl]acetyl}piperazine]
< 1000 nM	O=C(CN1CCN(c2ccc(C(F)(F)F)cc2)CC1)N1CCN(C2CCCC2)CC1 [Compound 829, 1-cyclopentyl-4-({4-[4-(trifluoromethyl)phenyl]-1-piperazinyl}acetyl) piperazine]

Same assay, conditions: Table II, "*" in Ki; assay of Example 7; read-out: Ki

Ki	SMILES
< 1000 nM	O=C(CN1CCN(c2ccccc2F)CC1)N1CCN(C2CCC2)CC1 [Compound 708, 1-cyclobutyl-4-{[4-(2-fluorophenyl)piperazin-1-yl]acetyl}piperazine]
< 1000 nM	O=C(CN1CC=C(c2ccccc2)CC1)N1CCN(C2CCC2)CC1 [Compound 656, 1-cyclobutyl-4-[(4-phenyl-3,6-dihydropyridin-1(2H)-yl)acetyl]piperazine]
< 1000 nM	CCS(=O)(=O)c1ccc(N2CCN(CC(=O)N3CCN(C4CCC4)CC3)CC2)cc1 [Compound 597, 1-cyclobutyl-4-({4-[4-(ethylsulfonyl)phenyl]piperazin-1-yl}acetyl)piperazine]
< 1000 nM	Cc1nc(-c2ccc(N3CCN(CC(=O)N4CCN(C5CCC5)CC4)CC3)cc2)no1 [Compound 595, 1-cyclobutyl-4-({4-[4-(5-methyl-1,2,4-oxadiazol-3-yl)phenyl]piperazin-1-yl}acetyl)piperazine]

Same assay, conditions: Table II; assay of Example 7; "*" in Ki; read-out: Ki

Ki	SMILES
< 1000 nM	CC(C)N(C)C(=O)c1ccc(N2CCN(CC(=O)N3CCN(C4CCC4)CC3)CC2)cc1 [Compound 1127, 4-{4-[2-(4-cyclobutylpiperazin-1-yl)-2-oxoethyl]piperazin-1-yl}-N-isopropyl-N-methylbenzamide]
< 1000 nM	COc1ccc(-c2cnc(N3CCN(CC(=O)N4CCN(C5CCC5)CC4)CC3)cn2)cc1 [Compound 944, 2-{4-[2-(4-cyclobutylpiperazin-1-yl)-2-oxoethyl]piperazin-1-yl}-5-(4-methoxyphenyl)pyrazine]
< 1000 nM	CC1CN(C(=O)c2ccc(N3CCN(CC(=O)N4CCN(C5CCC5)CC4)CC3)cc2)CC(C)O1 (stereo not shown) [Compound 1095, 4-(4-{4-[2-(4-cyclobutylpiperazin-1-yl)-2-oxoethyl]piperazin-1-yl}benzoyl)-2,6-dimethylmorpholine]
< 1000 nM	CC(C)c1ccc(-c2ccc(N3CCN(CC(=O)N4CCN(C5CCC5)CC4)CC3)nn2)cc1 [Compound 1014, 3-{4-[2-(4-cyclobutylpiperazin-1-yl)-2-oxoethyl]piperazin-1-yl}-6-(4-isopropylphenyl) pyridazine]
< 1000 nM	O=C(CN1CCN(c2ccc(Cl)nn2)CC1)N1CCN(C2CCC2)CC1 [Compound 1087, 3-chloro-6-{4-[2-(4-cyclobutylpiperazin-1-yl)-2-oxoethyl]piperazin-1-yl}pyridazine]
< 1000 nM	CCC(C)CNC(=O)c1cccc(N2CCN(CC(=O)N3CCN(C4CCC4)CC3)CC2)c1 (stereo not shown) [Compound 1071, 3-{4-[2-(4-cyclobutylpiperazin-1-yl)-2-oxoethyl]piperazin-1-yl}-N-(2-methylbutyl)benzamide]
< 1000 nM	Cc1cc(C)c(-c2cnc(N3CCN(CC(=O)N4CCN(C5CCC5)CC4)CC3)cn2)c(C)c1 [Compound 974, 2-{4-[2-(4-cyclobutylpiperazin-1-yl)-2-oxoethyl]piperazin-1-yl}-5-mesitylpyrazine]

Same assay, conditions: assay of Example 7; "*" in Ki of Table II; read-out: Ki

Ki	SMILES
< 1000 nM	CCN(C(=O)c1ccc(N2CCN(CC(=O)N3CCN(C4CCC4)CC3)CC2)nc1)C(C)C [Compound 1168, 6-{4-[2-(4-cyclobutylpiperazin-1-yl)-2-oxoethyl]piperazin-1-yl}-N-ethyl-N-isopropylnicotinamide]

Same assay, conditions: assay of Example 7; symbol * in column headed Ki of Table II; read-out: Ki

Ki	SMILES
< 1000 nM	CCCN(CCC)C1CCN(CC(=O)N2CCN(C3CCC3)CC2)CC1 [Compound 432, 1-[2-(4-cyclobutylpiperazin-1-yl)-2-oxoethyl]-N,N-dipropylpiperidin-4-amine]
< 1000 nM	CC(C)N1CCN(C(=O)CN2CCN(c3cccc(Cl)c3)CC2)CC1 [Compound 302, 1-(3-chlorophenyl)-4-[2-(4-isopropylpiperazin-1-yl)-2-oxoethyl]piperazine]

Reference: patent US7851474B2, “Dipiperazinyl ketones and related analogues” (Neurogen Corporation, priority 2005, dated 2010)
